Reference: patent publication US8134015B2, “Compound inhibiting in vivo phosphorous transport and medicine containing the same” (Kyowa Hakko Kirin Co., Ltd., priority 2003, dated 2012)
Counter-ions that a name gives are not always drawn.

Target: T1, rat NaPi-2b (Rattus norvegicus, UniProt Q9JJ09)
T1 construct: expressed in transfected cells; host or cells: Xenopus oocytes injected with cRNA
T1 sequence (Q9JJ09 1-695): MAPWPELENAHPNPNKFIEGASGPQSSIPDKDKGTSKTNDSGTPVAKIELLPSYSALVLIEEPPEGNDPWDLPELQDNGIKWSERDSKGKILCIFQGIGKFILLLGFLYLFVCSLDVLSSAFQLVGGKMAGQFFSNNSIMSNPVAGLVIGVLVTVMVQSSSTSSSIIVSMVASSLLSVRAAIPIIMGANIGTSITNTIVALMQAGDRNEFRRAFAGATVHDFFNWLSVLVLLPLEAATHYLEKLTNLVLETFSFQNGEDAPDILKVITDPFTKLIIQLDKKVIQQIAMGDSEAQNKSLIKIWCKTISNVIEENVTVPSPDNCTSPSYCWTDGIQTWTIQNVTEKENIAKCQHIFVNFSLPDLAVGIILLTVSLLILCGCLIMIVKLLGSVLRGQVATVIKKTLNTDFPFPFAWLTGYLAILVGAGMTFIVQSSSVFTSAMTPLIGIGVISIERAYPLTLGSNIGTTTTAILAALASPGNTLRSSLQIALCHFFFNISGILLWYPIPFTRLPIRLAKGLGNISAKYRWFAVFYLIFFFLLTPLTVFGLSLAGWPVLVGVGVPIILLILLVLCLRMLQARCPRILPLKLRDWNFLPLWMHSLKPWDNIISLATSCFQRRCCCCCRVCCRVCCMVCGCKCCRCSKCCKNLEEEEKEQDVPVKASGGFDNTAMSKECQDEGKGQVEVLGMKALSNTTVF
Experiment: Sodium-dependent phosphate uptake of Xenopus oocytes which expressed NaPi-2b (32P)
Assay type: cell-based
Details: for IC50: Xenopus oocytes expressing rat NaPi-2b, 32P radioactive phosphorus, read-out: IC50 (phosphate uptake inhibitory activity)
Procedure: Pharmacological Test Example 1
Experiment of Sodium-Dependent Phosphate Uptake of Xenopus oocytes which Expressed NaPi-2b
Degenerate primers were prepared from sequences of mouse NaPi-2b disclosed in Hilfiker H. et al., Pro Natl Acad Sci USA, 95 (24): 14564-14569, […] and sequences of human and rat NaPi-2a disclosed in Magagnin S. et al., Proc Natl Aca Sci USA, 90 (13): 5979-5983, 1993. RNA was extracted from the rat small intestine using ISOGEN; manufactured by NIPPON GENE CO., LTD (Japan). 400 bp gene fragments were obtained by PCR using, as a template, a cDNA library prepared with a cDNA synthesis kit (manufactured by STRATAGENE (US)). Thereafter, the above rat small intestine cDNA library was screened using the gene fragment as a probe, and the whole gene sequence of rat NaPi-2b was cloned. cRNA was synthesized from the cloned rat NaPi-2b cDNA with a cRNA synthesis kit (manufactured by Ambion (US)). The synthesized cRNA was injected into Xenopus oocytes (obtained from COPACETIC (Japan)) with a liquid microinjector (manufactured by Drummond (US)) and was cultured for 2 days to express rat NaPi-2b. Thereafter, for a group of derivatives, phosphate uptake inhibitory activity were measured using the Xenopus oocytes with ^32P radioactive phosphorus (manufactured by Daiichi Kagaku Inc. (Japan)). […] The inhibitory activity for 300 μM and 100 μM was determined from the same inhibition curve and expressed in percentage inhibition (%) in Table 5.

[1] = phosphate uptake, oocytes expressing rat NaPi-2b, determined from inhibition curve

Structure (SMILES)	IC50 [µM]	further results
O=C(Nc1ccc(N2CCC(CO)CC2)cc1C(=O)N/N=C/c1ccc(Cl)c(C(F)(F)F)c1)c1cccc(CSCCO)c1 [Compound 1063, N-[2-(4-Chloro-3-trifluoromethyl-benzylidene-hydrazinocarbonyl)-4-(4-hydroxymethyl-piperidin-1-yl)-phenyl]-3-(2-hydroxy-ethylsulfanylmethyl)-benzamide]		inhibition at 100 µM (phosphate uptake, oocytes expressing rat NaPi-2b, 100 μM, determined from inhibition curve): 63.9%
Cc1ccc(/C=N/NC(=O)c2ccccc2NC(=O)c2ccccn2)cc1C [Compound 507, Pyridin-2-carboxylic acid [2-(3,4-dimethyl-benzylidene-hydrazinocarbonyl)-phenyl]-amide]	1.86	
CCN(CCO)Cc1cccc(C(=O)Nc2ccc(Cl)cc2C(=O)N/N=C/c2cccc(O)c2)c1 [Compound 430, N-[4-Chloro-2-(3-hydroxy-benzylidene-hydrazinocarbonyl)-phenyl]-3-{[ethyl-(2-hydroxy-ethyl)-amino]-methyl}-benzamide]	4.53	
COc1ccc(C(=O)Nc2cc(OC)c(OC)cc2C(=O)N/N=C/c2ccccc2)cc1OC [Compound 227, N-[2-(Benzylidene-hydrazinocarbonyl)-4,5-dimethoxy-phenyl]-3,4-dimethoxy-benzamide]	7.4	
Cc1ccc(/C=N/NC(=O)c2c(C)csc2NC(=O)c2cccc(CSCCCO)c2)cc1C [Compound 557, N-[3-(3,4-Dimethyl-benzylidene-hydrazinocarbonyl)-4-methyl-thiophen-2-yl]-3-(3-hydroxy-propylsulfanylmethyl)-benzamide]	< 0.3	
CN(C)CCn1nnnc1SCc1cccc(C(=O)Nc2ccc(Cl)cc2C(=O)N/N=C/c2ccc(F)cc2)c1 [Compound 463, N-[4-Chloro-2-(4-fluoro-benzylidene-hydrazinocarbonyl)-phenyl]-3-[1-(2-dimethylamino-ethyl)-1H-tetrazol-5-ylsulfanylmethyl]-benzamide]	4.44	
Cc1cccc(/C=N/NC(=O)c2ccccc2NC(=O)c2ccc(F)cc2)c1 [Compound 78, 4-Fluoro-N-[2-(3-methyl-benzylidene-hydrazinocarbonyl)-phenyl]-benzamide]	7.17	
Cc1ccc(/C=N/NC(=O)c2ccccc2NC(=O)c2ccc(F)cc2)cc1 [Compound 79, 4-Fluoro-N-[2-(4-methyl-benzylidene-hydrazinocarbonyl)-phenyl]-benzamide]	2.87	
CCOCCN(CCOCC)Cc1ccc(C(=O)Nc2ccc(Br)cc2C(=O)N/N=C/c2ccc(C)cc2)cc1 [Compound 734, 4-{[Bis-(2-ethoxy-ethyl)-amino]-methyl}-N-[4-bromo-2-(4-methyl-benzylidene-hydrazinocarbonyl)-phenyl]-benzamide]		inhibition at 300 µM [1]: 64.9%
CCN(CC)CCNCc1cccc(C(=O)Nc2c(C)csc2C(=O)N/N=C/c2ccc(C)c(C)c2)c1 [Compound 536, 3-[(2-Diethylamino-ethylamino)-methyl]-N-[2-(3,4-dimethyl-benzylidene-hydrazinocarbonyl)-4-methyl-thiophen-3-yl]-benzamide]		inhibition at 300 µM [1]: 88.2%
Cc1cccc(/C=N/NC(=O)c2cc(Br)ccc2NC(=O)c2cccc(CSc3nc[nH]n3)c2)c1 [Compound 269, N-[4-Bromo-2-(3-methyl-benzylidene-hydrazinocarbonyl)-phenyl]-3-(1H-[1,2,4]triazol-3-ylsulfanylmethyl)-benzamide]	2.19	
Cc1ccc(/C=N/NC(=O)c2cc(Br)ccc2NC(=O)c2ccc(CNCCCN(C)c3ccccc3)cc2)cc1 [Compound 758, N-[4-Bromo-2-(4-methyl-benzylidene-hydrazinocarbonyl)-phenyl]-4-{[3-(methyl-phenyl-amino)-propylamino]-methyl}-benzamide]		inhibition at 300 µM [1]: 58.2%
O=C(Nc1ccc(OCCCCF)cc1C(=O)N/N=C/c1cccc(F)c1)c1cccc(CSCCO)c1 [Compound 1051, N-[2-(3-Fluoro-benzylidene-hydrazinocarbonyl)-4-(4-fluoro-butoxy)-phenyl]-3-(2-hydroxy-ethylsulfanylmethyl)-benzamide]	1.16	
Cc1ccc(/C=N/NC(=O)c2c(C)csc2NC(=O)c2cccc(CN(CC(C)O)CC(C)O)c2)cc1C (centres unmarked) [Compound 587, 3-{[Bis-(2-hydroxy-propyl)-amino]-methyl}-N-[3-(3,4-dimethyl-benzylidene-hydrazinocarbonyl)-4-methyl-thiophen-2-yl]-benzamide]	< 3	
O=C(Nc1ccc(Br)cc1C(=O)N/N=C/c1ccc(Cl)c(C(F)(F)F)c1)c1ccncc1 [Compound 171, N-[4-Bromo-2-(4-chloro-3-trifluoromethyl-benzylidene-hydrazinocarbonyl)-phenyl]-isonicotinamide]	5.12	
Cc1ccc(/C=N/NC(=O)c2cc(Cl)ccc2NC(=O)c2cnc3ccccc3n2)cc1C [Compound 1005, Quinoxaline-2-carboxylic acid [4-chloro-2-(3,4-dimethyl-benzylidene-hydrazinocarbonyl)-phenyl]-amide]		inhibition at 300 µM [1]: 59.1%
COc1ccc(/C=N/NC(=O)c2ccccc2NC(=O)c2cccc(F)c2)cc1Br [Compound 101, N-[2-(3-Bromo-4-methoxy-benzylidene-hydrazinocarbonyl)-phenyl]-3-fluoro-benzamide]	0.75	
COc1ccc(C(=O)Nc2ccc(C)cc2C(=O)N/N=C/c2cccc(F)c2)cc1OC [Compound 146, N-[2-(3-Fluoro-benzylidene-hydrazinocarbonyl)-4-methyl-phenyl]-3,4-dimethoxy-benzamide]	1.99	

Continued, in another order:

IC50 [µM]	Structure (SMILES)	further results
137	COc1ccc(C(=O)Nc2ccc(N3CCCCC3)cc2C(=O)N/N=C/c2ncc[nH]2)cc1OC [Compound 937, N-[2-(1H-Imidazol-2-ylmethylene-hydrazinocarbonyl)-4-piperidin-1-yl-phenyl]-3,4-dimethoxy-benzamide]	
0.35	CC(O)CN(Cc1cccc(C(=O)Nc2sc3ccccc3c2C(=O)N/N=C/c2ccc(Cl)c(C(F)(F)F)c2)c1)CC(C)O (centres unmarked) [Compound 796, 3-{[Bis-(2-hydroxy-propyl)-amino]-methyl}-N-[3-(4-chloro-3-trifluoromethyl-benzylidene-hydrazinocarbonyl)-benzo[b]thiophen-2-yl]-benzamide]	
17.1	Cc1ccc(/C=N/NC(=O)c2cc(Br)ccc2NC(=O)c2ccc(CN(C)CC(O)c3ccc(O)cc3)cc2)cc1C (centres unmarked) [Compound 724, N-[4-Bromo-2-(3,4-dimethyl-benzylidene-hydrazinocarbonyl)-phenyl]-4-({[2-hydroxy-2-(4-hydroxy-phenyl)-ethyl]-methyl-amino}-methyl)-benzamide]	
1.33	COc1ccc(/C=N/NC(=O)c2cc(F)ccc2NC(=O)c2cccc(CN(CC(C)O)CC(C)O)c2)cc1 (centres unmarked) [Compound 854, 3-{[Bis-(2-hydroxy-propyl)-amino]-methyl}-N-[4-fluoro-2-(4-methoxy-benzylidene-hydrazinocarbonyl)-phenyl]-benzamide; hydrochloride]	
< 1	COc1ccc(/C=N/NC(=O)c2cc3ccccc3cc2NC(=O)c2cccc(CN(CC(C)O)CC(C)O)c2)cc1 (centres unmarked) [Compound 963, 3-{[Bis-(2-hydroxy-propyl)-amino]-methyl}-N-[3-(4-methoxy-benzylidene-hydrazinocarbonyl)-naphthalen-2-yl]-benzamide]	
8.72	COc1ccc(/C=N/NC(=O)c2cc(N3CCOCC3)ccc2NC(=O)c2ccc(OC)c(OC)c2)cc1 [Compound 941, 3,4-Dimethoxy-N-[2-(4-methoxy-benzylidene-hydrazinocarbonyl)-4-morpholin-4-yl-phenyl]-benzamide]	
9.59	CC(O)CN(Cc1ccc(C(=O)Nc2ccc(Br)cc2C(=O)N/N=C/c2ccc(F)cc2)cc1)CC(C)O (centres unmarked) [Compound 719, 4-{[Bis-(2-hydroxy-propyl)-amino]-methyl}-N-[4-bromo-2-(4-fluoro-benzylidene-hydrazinocarbonyl)-phenyl]-benzamide]	
5.57	COc1ccc(/C=N/NC(=O)c2cc(OC)ccc2NC(=O)c2cccc(CSCC(O)CO)c2)cc1 (centres unmarked) [Compound 1021, 3-(2,3-Dihydroxy-propylsulfanylmethyl)-N-[4-methoxy-2-(4-methoxy-benzylidene-hydrazinocarbonyl)-phenyl]-benzamide]	
